Measurements taken from the NIST ThermoML archive (doi:10.1021/je900777q).
Values joined by “and” are separate entries in the source; they are usually repeats but may differ in a detail not shown here. Equal values may be shown once.

What was measured:
[1] = Crystal; for vapor or sublimation pressure: Calculated from knudsen effusion weight loss; for Normal melting temperature: DTA
[2] = Molar enthalpy of transition or fusion; conditions: Crystal; DSC

O=C(O)c1ccc(O)cc1O [2,4-dihydroxybenzoic acid]
[1]
Conditions	vapor or sublimation pressure
376.22 K	0.000198 kPa and 0.000192 kPa and 0.000195 kPa
377.32 K	0.000224 kPa and 0.000217 kPa and 0.00022 kPa
379.13 K	0.000269 kPa and 0.00026 kPa and 0.000264 kPa
381.15 K	0.000315 kPa and 0.000319 kPa and 0.000332 kPa
383.13 K	0.000399 kPa and 0.000388 kPa and 0.00039 kPa
385.12 K	0.000501 kPa and 0.000489 kPa and 0.000493 kPa
387.17 K	0.000613 kPa and 0.000591 kPa and 0.000593 kPa
389.35 K	0.000762 kPa and 0.000732 kPa and 0.000741 kPa
391.3 K	0.000916 kPa and 0.000884 kPa and 0.000893 kPa
392.11 K	0.000988 kPa and 0.000961 kPa and 0.000955 kPa

O=C(O)c1cc(O)ccc1O [2,5-dihydroxybenzoic acid]
Conditions	Molar enthalpy of transition or fusion [kcal/mol]	Normal melting temperature [°C]
[1]	–	203.1
[2]	4.97	–

[1]
Conditions	vapor or sublimation pressure
372.14 K	0.00015 kPa and 0.000146 kPa and 0.000145 kPa
374.13 K	0.000192 kPa and 0.000182 kPa and 0.000183 kPa
376.19 K	0.000231 kPa and 0.000221 kPa
378.15 K	0.000287 kPa and 0.000299 kPa and 0.000285 kPa
380.3 K	0.000373 kPa and 0.000356 kPa and 0.000364 kPa
382.22 K	0.00045 kPa
384.7 K	0.000572 kPa and 0.000574 kPa
386.12 K	0.000663 kPa and 0.000649 kPa
388.92 K	0.000905 kPa and 0.000871 kPa and 0.000866 kPa

O=C(O)c1c(O)cccc1O [2,6-dihydroxybenzoic acid]
[1]
Conditions	vapor or sublimation pressure
347.14 K	0.000138 kPa and 0.000131 kPa and 0.000133 kPa
349.32 K	0.000171 kPa and 0.000173 kPa
351.02 K	0.000204 kPa and 0.000208 kPa
353.26 K	0.000255 kPa and 0.000249 kPa
355.35 K	0.000323 kPa and 0.000336 kPa
357.2 K	0.000401 kPa and 0.000391 kPa and 0.000386 kPa
359.28 K	0.000491 kPa and 0.000477 kPa and 0.000479 kPa
361.38 K	0.000609 kPa and 0.00059 kPa and 0.000586 kPa
363.19 K	0.000713 kPa and 0.000692 kPa and 0.000679 kPa
365.17 K	0.000881 kPa and 0.000845 kPa and 0.000834 kPa

O=C(O)c1cccc(O)c1O [2,3-dihydroxybenzoic acid]
Conditions	Molar enthalpy of transition or fusion [kcal/mol]	Normal melting temperature [°C]
[1]	–	203.2
[2]	7.62	–

[1]
Conditions	vapor or sublimation pressure
345.22 K	0.000158 kPa and 0.000159 kPa and 0.000157 kPa
347.21 K	0.000201 kPa and 0.000196 kPa and 0.000197 kPa
349.23 K	0.00025 kPa and 0.000248 kPa and 0.000246 kPa
351.19 K	0.000308 kPa and 0.00031 kPa
353.21 K	0.00038 kPa and 0.000377 kPa
355.17 K	0.000468 kPa and 0.000466 kPa
357.2 K	0.000569 kPa and 0.000565 kPa and 0.000564 kPa
359.2 K	0.000716 kPa and 0.000708 kPa and 0.000711 kPa
361.21 K	0.000867 kPa and 0.000857 kPa and 0.000861 kPa
363.18 K	0.001039 kPa and 0.001029 kPa

O=C(O)c1ccc(O)c(O)c1 [3,4-dihydroxybenzoic acid]
[1]
Conditions	vapor or sublimation pressure
387.12 K	8.9e-05 kPa and 8.7e-05 kPa and 8.6e-05 kPa
391.31 K	0.000132 kPa and 0.000133 kPa
393.33 K	0.000166 kPa and 0.000164 kPa and 0.000165 kPa
395.2 K	0.0002 kPa and 0.000202 kPa and 0.000201 kPa
397.32 K	0.000249 kPa and 0.000253 kPa and 0.00025 kPa
401.25 K	0.000367 kPa and 0.000365 kPa
403.26 K	0.000451 kPa and 0.000452 kPa and 0.00045 kPa

O=C(O)c1cc(O)cc(O)c1 [3,5-dihydroxybenzoic acid]
Conditions	Molar enthalpy of transition or fusion [kcal/mol]	Normal melting temperature [°C]
[1]	–	235.2
[2]	9.15	–

[1]
Conditions	vapor or sublimation pressure
407.36 K	9.8e-05 kPa and 9.7e-05 kPa
410.25 K	0.00013 kPa and 0.000129 kPa
413.16 K	0.000176 kPa and 0.000179 kPa and 0.000175 kPa
416.13 K	0.000237 kPa and 0.000234 kPa and 0.000238 kPa
419.21 K	0.000305 kPa and 0.00031 kPa and 0.000311 kPa
422.2 K	0.000407 kPa and 0.000409 kPa and 0.000412 kPa
425.23 K	0.000561 kPa and 0.000563 kPa
